Results published in US9808470B2, “Estrogenic components for use in the treatment of neurological disorders” (UNIVERSITE DE LIEGE, priority 2012, dated 2017).

Assays:
Assay type in all cases: in vivo
[1] = system: intact cells in hippocampus and cortex; assay: Ex.2 neonatal HIE rat model, pre-treatment: hematoxylin-eosin staining and intact cell counting
Description: Paraformaldehyde-fixed paraffin embedded samples of the removed brains were coronally sectioned at the same level of the hippocampus region in accordance to the Paxinos rat brain atlas (Paxinos and Watson 2007. In: The rat brain in stereotaxic coordinates, 6th edition). Thickness of sections was 5 μm. Hematoxylin-eosin staining was performed. Briefly, sections were deparaffinized in xylene and rehydrated in graded ethanol concentrations before staining. Slides were stained with hematoxylin, rinsed for a few seconds in water, then placed in 1% eosin and washed, dehydrated, and coverslipped.
Intact cell counting was performed on hematoxylin-eosin-stained sections of the rat pups brains at magnification 400× in 3 fields of the respective brain area. Countings were performed in cortex and hippocampus (regions: dentate gyrus (DG), subgranular zone (SGZ), cornu ammonis (CA1, CA2/CA3)). The sections were analyzed with the aid of a microscope (Olympus BX51, Olympus, Tokyo, Japan), an image scanner (DotSlide Digital Virtual Microscopy, Olympus, Germany) and ImageJ software (NIH, US).
Intact cells are uninjured. Injured cells are characterized by a pale eosinophilic staining along with non-uniform nuclear densities-shrunken, condensed, or pale and enlarged.
After delivery, newborn rat pups were assigned to one of the following 4 groups: Sham group, Vehicle group, E4 5 mg/kg/per day group and E4 50 mg/kg/per day group. From day 4 to day 7 inclusive, rat pups were injected intraperitoneally either vehicle (Vehicle group) or E4 (5 mg/kg or 50 mg/kg in accordance to the group assignment) or not injected at all (Sham group). At day 7, 30 minutes after last injection, animals from Vehicle and E4 (5 mg/kg or 50 mg/kg) groups passed through surgery encompassing left common carotid artery double ligation and cut, followed by hypoxia produced by the inhalation of 11%-8% of oxygen balanced by nitrogen at decreased concentration for 20 minutes, followed by inhalation of 8% oxygen and 92% nitrogen at constant concentration for 35 minutes. The Sham group went through similar procedures without left common carotid artery ligation and hypoxia. All the manipulations were performed at 37° C. Rat pups recovered with their dams until being sacrificed at postnatal day 14.

doublecortin (DCX) = assay: Ex.3 neuroprotective HIE rat model: doublecortin staining
Description: The sections were heated in 10 mmol/L citrate buffer (pH 6.0) at 100° C. for 10 minutes. Endogenous peroxidase activity was blocked with 3% hydrogen peroxide for 10 minutes and after a second blocking with 5% normal goat serum, the sections were incubated with anti-doublecortin (DCX) antibody, diluted 1:1000 (rabbit polyclonal antibody; Abcam, Cambridge, UK) and anti-vascular endothelial growth factor (VEGF) antibody, diluted 1:100 (mouse monoclonal antibody; Abcam, Cambridge, UK) overnight at 4° C. After rinsing, Alexa Fluor® goat anti-rabbit, diluted 1:1000 and Alexa Fluor® goat anti-mouse, diluted 1:1000 (Invitrogen Inc., Ghent, Belgium) were added and sections were incubated 1 h at room temperature. Mounting medium containing 4′,6-diamidino-2-phenylindole (DAPI) for fluorescent studies was used (Vector Laboratories). Samples were analyzed with the aid of a microscope (Olympus Vanox AHBT3, Olympus), and the ImageJ software (NIH). The percentage of positively stained cells was quantified as a sum of positively stained either DCX or VEGF cells divided by the total number of DAPI positive cells expressed in percentage.
(§1) Newborn rat pups were assigned to one of the following 6 groups from postnatal day 4: Sham group (n=24), Vehicle group (n=14), E4 1 mg/kg/per day group (n=11), E4 5 mg/kg/per day group (n=14), E4 10 mg/kg/per day group (n=14), or E4 50 mg/kg/per day group (n=19). From postnatal day 4, rat pups were intraperitoneally injected either vehicle (Vehicle group) or E4 (1, 5, 10, or 50 mg/kg/per day in accordance to the E4 group assignment) or neither vehicle nor E4 (Sham group). At day 7, 30 minutes after last injection, animals were anesthetized with isoflurane (induction, 3.0%; maintenance, 1.5%), and the rat pups from Vehicle and E4 groups passed through surgery encompassing left common carotid artery double ligation and cut. After the procedure, the pups were returned to their dams and were allowed to recover for 1 hour. The pups were then placed in the humidified hypoxic in vivo cabinet (CoyLab, Grass Lake, Mich., USA). Hypoxia was produced by the inhalation of 11%-8% of oxygen balanced by nitrogen at decreased concentration of oxygen for 20 minutes, followed by inhalation of 8% oxygen and 92% nitrogen at constant concentration for 35 minutes. All the manipulations were performed at 37° C. The Sham group went through similar procedures without left common carotid artery ligation followed by hypoxia nor injection. Rat pups recovered with their dams and reared normally until being sacrificed at postnatal day 14.

[2] = Ex.3 neuroprotective HIE rat model: rectal temperature; conditions: E4 1, 5, 10, 50 mg/kg/day ip PND4-7 before HI; 0, 2, 4 h after hypoxia
Description: The rectal temperature of the rat pups was measured with a multipurpose thermometer (BAT-10R, Physitemp Instruments Inc., Clifton, N.J., US) along with a rectal probe (RET-4, BioMedical Instruments, Zollnitz, Germany) at 0, 2, and 4 hours after exposure to hypoxic insult. To keep the variability of the temperature low, measurements of rectal temperature were made in a 25° C. room 15 min after removal of the pups from the nest (except the 1st post-hypoxic measurement which was done immediately). It has been shown that the rectal temperature corresponds very well to the brain core temperature (Thoresen et al. 1996. Arch Dis Child Fetal Neonatal 74: F3-F9, Yager et al. 1993. Pediatr Res 34: 525-529).
Newborn rat pups were assigned to one of the following 6 groups from postnatal day 4: Sham group (n=24), Vehicle group (n=14), E4 1 mg/kg/per day group (n=11), E4 5 mg/kg/per day group (n=14), E4 10 mg/kg/per day group (n=14), or E4 50 mg/kg/per day group (n=19). From postnatal day 4, rat pups were intraperitoneally injected either vehicle (Vehicle group) or E4 (1, 5, 10, or 50 mg/kg/per day in accordance to the E4 group assignment) or neither vehicle nor E4 (Sham group). […]

[3] = system: glial fibrillary acidic protein (GFAP); assay: Ex.3 neuroprotective HIE rat model: blood serum GFAP ELISA; conditions: 50 mg/kg E4 ip PND4-7 before HI; PND14
Description: Blood was withdrawn, centrifuged and the serum samples were stored at −80° C.
ELISAs for detecting the brain damage markers S100B protein (Catalog# CSB-E08066r, Cusabio Biotech Co., LTD, China), and glial fibrillary acidic protein (GFAP) (Catalog# E90068Ra, Uscn Life sciences Inc., China) in blood serum samples were performed according to the manufacturers' recommendations.
as §1, with “Hypoxia was produced by the inhalation of 11%-8% of oxygen balanced by nitrogen at decreased concentration of oxygen for 20 minutes, followed by inhalation of 8% oxygen and 92% nitrogen at constant concentration for 35 minutes. All the manipulations were performed at 37° C. The Sham group went through similar procedures without left common carotid artery ligation followed by hypoxia nor injection. Rat pups recovered with their dams and reared normally until being sacrificed at postnatal day 14.” left out

Which “number of intact cells per visual field” value ([1]; E4 5 mg/kg ip day 4-7 before HI, DG, vs Vehicle) does the source give for `C[C@]12CC[C@@H]3c4ccc(O)cc4CC[C@H]3[C@@H]1[C@@H](O)[C@@H](O)[C@@H]2O` [E4, 1,3,5(10)-estratrien-3,15α,16α,17β-tetrol] here?
The value was “significantly higher”.

And the “number of intact cells per visual field” value ([1]; E4 5 mg/kg ip day 4-7 before HI, SGZ, vs Sham and Vehicle)?
The value was “significantly higher”.

And the “number of intact cells per visual field” value ([1]; E4 50 mg/kg ip day 4-7 before HI, CA2/CA3, vs Vehicle and E4 5 mg/kg)?
Its value is “significantly higher number of intact cells”.

What about the “number of intact cells per visual field” value ([1]; E4 50 mg/kg ip day 4-7 before HI, cortex, vs Vehicle) of the same molecule?
Its value is “significantly higher number of intact cells”.

What about the “number of intact cells per visual field” value ([1]; E4 5 and 50 mg/kg ip day 4-7 before HI, CA1, among study groups) of the same molecule?
The value was “non-significant difference”.

What about the “Hematoxylin-Eosin staining of hippocampus region” value ([1]; E4 5 and 50 mg/kg ip day 4-7 before HI, day 14) of the same molecule?
Its value is “neuroprotective effect”.

What about the “percentage of DCX positively stained cells” value (“percentage” below) (doublecortin (DCX); 5 mg/kg E4 ip PND4-7 before HI, CA1) of the same molecule?
The value was 35.2±3.309%.

And the “percentage” value (doublecortin (DCX); 5 mg/kg E4 ip PND4-7 before HI, CA2/CA3)?
The value was 30.3±3.7%.

And the “percentage” value (doublecortin (DCX); 10 mg/kg E4 ip PND4-7 before HI, CA1)?
Its value is 34.1±6.664%.

What about the “percentage” value (doublecortin (DCX); 10 mg/kg E4 ip PND4-7 before HI, DG) of the same molecule?
The value was 55.8±5.658%.

And the “percentage” value (doublecortin (DCX); 10 mg/kg E4 ip PND4-7 before HI, cortex)?
Its value is 52.1±7.762%.

And the rectal temperature [2]?
Its rectal temperature is “did not affect the body temperature”.

What about the “concentration of GFAP in blood serum” value [3] of the same molecule?
The value was 300.388 ± 31.232 pg/mL.
